This passage reports IC50 results from patent publication US8883782B2, “Spiro-tetracyclic ring compounds as beta-secretase modulators and methods of use” (Amgen Inc., priority 2010, dated 2014).

Molecules are shown by their SMILES. Where two headings read alike, the source gives them in different places. Bounds are passed on as bounds.

Test [1] addresses Beta Secretase enzyme (BACE) (Homo sapiens, UniProt P56817). Briefly: In vitro enzymatic BACE FRET (fluorescence resonance energy transfer) assay. The test is classed as biochemical. Particulars: average IC50, enzyme assay; read-out: BACE 1 FRET assay. The gist of the method: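 Fluorescence read after Tris quench (pH raised to neutrality) of a one-hour BACE reaction. Buffer: acetate 0.05 M, pH 4.2, with 100 uM genapol and 10% DMSO final; started by adding 50 nM FRET peptide substrate spanning the cleavage site.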

Test [2] deals with Aβ40 in conditioned medium of cells stably expressing Amyloid Precursor Protein (APP). Briefly: In vitro BACE cell-based assay (Aβ40 in conditioned medium, sandwich ELISA). Particulars: Homo sapiens, read-out: HEK cell assay. The gist of the method:
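Quantification relied on pAb40/6E10 sandwich ELISA with Europium fluorescence counts, and IC50 was fitted versus concentration.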
On the technique in general: An ELISA detects its analyte on a solid surface through an enzyme-linked reagent.

The mark [3] stands for this setting: HEK293, average IC50, HEK cells.

Sequence of Beta Secretase enzyme (BACE) (P56817 46-501, species assumed): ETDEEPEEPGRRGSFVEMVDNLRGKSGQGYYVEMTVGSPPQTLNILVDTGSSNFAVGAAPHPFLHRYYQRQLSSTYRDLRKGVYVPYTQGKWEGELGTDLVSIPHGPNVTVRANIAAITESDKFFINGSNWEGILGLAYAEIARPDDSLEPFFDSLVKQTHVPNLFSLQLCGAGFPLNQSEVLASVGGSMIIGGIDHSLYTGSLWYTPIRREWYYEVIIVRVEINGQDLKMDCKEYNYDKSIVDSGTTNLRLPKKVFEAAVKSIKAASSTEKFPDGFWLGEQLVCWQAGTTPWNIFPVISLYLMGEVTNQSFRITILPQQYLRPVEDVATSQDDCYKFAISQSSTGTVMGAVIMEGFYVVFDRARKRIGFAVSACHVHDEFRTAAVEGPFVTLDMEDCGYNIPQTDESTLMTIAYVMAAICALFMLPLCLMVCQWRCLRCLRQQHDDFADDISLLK

`CC1(C)C[C@H](c2cnc3c(c2)[C@]2(COC(N)=N2)c2cc(-c4cccc(Cl)c4)ccc2O3)CCO1` [Example 473, (5S)-7-(3-chlorophenyl)-3-((4R)-2,2-dimethyltetrahydro-2H-pyran-4-yl)spiro[chromeno[2,3-b]pyridine-5,4′-[1,3]oxazol]-2′-amine]: the IC50 worked out at 2.1 nM in test [1] and 15.5 nM in test [2] (setting [3]).

Consider `CC(C)(C#N)COc1cc(F)c2c(c1)[C@]1(COC(N)=N1)c1cc(-c3cncc(F)c3)ccc1O2` [Example 272, 3-(((4S)-2-amino-4′-fluoro-7′-(5-fluoro-3-pyridinyl)spiro[1,3-oxazole-4,9′-xanthen]-2′-yl)oxy)-2,2-dimethylpropanenitrile], for which the IC50 in test [1] was determined as 0.5 nM; in test [2] (HEK293, average IC50), 5.9 nM.

Consider `CC(C)(C)COc1ccc2c(c1)[C@@]1(COC(N)=N1)c1cc(C3=CC(C)(C)OCC3)cnc1O2` [Example 506, (5S)-3-(6,6-dimethyl-3,6-dihydro-2H-pyran-4-yl)-7-(2,2-dimethylpropoxy)spiro[chromeno[2,3-b]pyridine-5,4′-[1,3]oxazol]-2′-amine], for which the IC50 in test [1] worked out at 5.7 nM; in test [2] (setting [3]), 36.1 nM.

Turning to `N#CC1CN(c2cc3c(cn2)Oc2ccc(-c4cccnc4)cc2[C@@]32COC(N)=N2)C1` [Example 410, 1-((5S)-2′-amino-7-(3-pyridinyl)spiro[chromeno[2,3-c]pyridine-5,4′-[1,3]oxazol]-3-yl)-3-azetidinecarbonitrile], the IC50 came to 28.7 nM in test [1] and 128 nM in test [2] (setting [3]).

With `NC1=NC2(CS1)c1cc(-c3cccnc3F)ccc1Oc1c2cc(-c2cccnc2F)nc1F` (stereo not drawn) [Example 682, 1-fluoro-3,7-bis(2-fluoro-3-pyridinyl)spiro[chromeno[2,3-c]pyridine-5,4′-[1,3]thiazol]-2′-amine], the IC50 worked out at 0.9 nM in test [1] and 74 nM in test [2] (setting [3]).

For the compound `CC#Cc1cncc(-c2ccc3c(c2)[C@@]2(COC(N)=N2)c2cc(C4=CCOCC4)nc(F)c2O3)c1` [Example 760, (5S)-3-(3,6-dihydro-2H-pyran-4-yl)-1-fluoro-7-(5-(1-propyn-1-yl)-3-pyridinyl)spiro[chromeno[2,3-c]pyridine-5,4′-[1,3]oxazol]-2′-amine], the IC50 amounted to 0.3 nM in test [1] and 2 nM in test [2] (HEK293, average IC50).

For `CC1(C#Cc2cnc3c(c2)[C@]2(COC(N)=N2)c2cc(-c4ccc(F)c(C#N)c4)ccc2O3)COC1` [Example 787, 5-((5S)-2′-amino-3-((3-methyl-3-oxetanyl)ethynyl)spiro[chromeno[2,3-b]pyridine-5,4′-[1,3]oxazol]-7-yl)-2-fluorobenzonitrile], the IC50 in test [1] is 5.6 nM; in test [2] (HEK293, average IC50), 44 nM.

Consider `COc1ccc(-c2cc3c(cn2)Oc2ccc(-c4cccc(Cl)c4)cc2[C@@]32COC(N)=N2)cc1F` [Example 535, (5S)-7-(3-chlorophenyl)-3-(3-fluoro-4-methoxyphenyl)spiro[chromeno[2,3-c]pyridine-5,4′-[1,3]oxazol]-2′-amine], for which the IC50 in test [1] stood at 0.7 nM; in test [2] (setting [3]), 106 nM.

Take `COc1cc(F)c2c(c1)[C@]1(CSC(N)=N1)c1cc(-c3cccnc3F)ccc1O2` [Example 608, (4S)-4′-fluoro-7′-(2-fluoro-3-pyridinyl)-2′-methoxyspiro[1,3-thiazole-4,9′-xanthen]-2-amine]: the values for the IC50 in test [1] and in test [2] (setting [3]) were 3.6 nM and 162 nM, respectively.

With `NC1=N[C@@]2(CO1)c1cc(-c3cccnc3F)c(F)cc1Oc1c(F)cc(C3CCOCC3)cc12` [Example 872, (4S)-3′,5′-difluoro-2′-(2-fluoro-3-pyridinyl)-7′-(tetrahydro-2H-pyran-4-yl)spiro[1,3-oxazole-4,9′-xanthen]-2-amine], the IC50 in test [1] was 0.6 nM; in test [2] (setting [3]), 15 nM.

Consider `COc1ncccc1-c1ccc2c(c1)[C@@]1(COC(N)=N1)c1cc(-c3ccnc(F)c3)ncc1O2` [Example 239, (5S)-3-(2-fluoro-4-pyridinyl)-7-(2-methoxy-3-pyridinyl)spiro[chromeno[2,3-c]pyridine-5,4′-[1,3]oxazol]-2′-amine], for which the IC50 in test [1] was found to be 33.5 nM; in test [2] (HEK293, average IC50) it was 389 nM.

For `Cc1ccc(-c2cc3c(cn2)Oc2ccc(-c4cncc(Cl)c4)cc2[C@@]32COC(N)=N2)cn1` [Example 227, (5S)-7-(5-chloro-3-pyridinyl)-3-(6-methyl-3-pyridinyl)spiro[chromeno[2,3-c]pyridine-5,4′-[1,3]oxazol]-2′-amine], the IC50 in test [1] came out at 1.4 nM; in test [2] (HEK293, average IC50), 7.1 nM.

Take `NC1=N[C@@]2(CO1)c1cc(-c3cncc(F)c3)ccc1Oc1c2cc(N2CC[C@H](F)C2)nc1F` [Example 926, (5S)-1-fluoro-7-(5-fluoro-3-pyridinyl)-3-((3S)-3-fluoro-1-pyrrolidinyl)spiro[chromeno[2,3-c]pyridine-5,4′-[1,3]oxazol]-2′-amine]: the IC50 in test [1] was found to be 0.3 nM; in test [2] (setting [3]), 8 nM.

In the case of `COc1ccc2c(c1)[C@@]1(COC(N)=N1)c1cc(SCc3ccccc3)cnc1O2` [Example 185, (5S)-3-(benzylsulfanyl)-7-methoxyspiro[chromeno[2,3-b]pyridine-5,4′-[1,3]oxazol]-2′-amine], the IC50 in test [1] was found to be 5060 nM; in test [2] (HEK293, average IC50), 10000 nM.

Consider `CC1(C#Cc2cc3c(cn2)Oc2ccc(-c4cccnc4F)cc2[C@@]32COC(N)=N2)COC1` [Example 405, (5S)-7-(2-fluoro-3-pyridinyl)-3-((3-methyl-3-oxetanyl)ethynyl)spiro[chromeno[2,3-c]pyridine-5,4′-[1,3]oxazol]-2′-amine], for which the IC50 in test [1] is 1.4 nM; in test [2] (setting [3]) it was 11.1 nM.

Take `CC1(C#Cc2cc3c(cn2)Oc2ccc(-c4ccccc4)cc2[C@@]32COC(N)=N2)COC1` [Example 155, (5S)-3-((3-methyl-3-oxetanyl)ethynyl)-7-phenylspiro[chromeno[2,3-c]pyridine-5,4′-[1,3]oxazol]-2′-amine]: the IC50 in test [1] came to 17.3 nM; in test [2] (HEK293, average IC50) it was 173 nM.

For the compound `NC1=N[C@@]2(CS1)c1cc(-c3cccnc3F)ccc1Oc1ncc(Br)cc12` [Example 603, (5S)-3-bromo-7-(2-fluoro-3-pyridinyl)spiro[chromeno[2,3-b]pyridine-5,4′-[1,3]thiazol]-2′-amine], the IC50 in test [1] came out at 8.7 nM; in test [2] (setting [3]), 188 nM.

For `NC1=N[C@@]2(CO1)c1cc(-c3cncc(F)c3)ccc1Oc1cnc(-c3ccnc(F)c3)cc12` [Example 376, (5S)-3-(2-fluoro-4-pyridinyl)-7-(5-fluoro-3-pyridinyl)spiro[chromeno[2,3-c]pyridine-5,4′-[1,3]oxazol]-2′-amine], the IC50 is 2.6 nM in test [1] and 33 nM in test [2] (HEK293, average IC50).

For `NC1=N[C@@]2(CO1)c1cc(-c3cccnc3F)ccc1Oc1c(F)cc(-c3cccnn3)cc12` [Example 201, (4S)-4′-fluoro-7′-(2-fluoro-3-pyridinyl)-2′-(3-pyridazinyl)spiro[1,3-oxazole-4,9′-xanthen]-2-amine], the IC50 worked out at 1.8 nM in test [1] and 7.6 nM in test [2] (HEK293, average IC50).

With `CC1(CCc2cc(F)c3c(c2)[C@]2(COC(N)=N2)c2cc(-c4cccnc4F)ccc2O3)COC1` [Example 101, (S)-4′-fluoro-7′-(2-fluoropyridin-3-yl)-2′-(2-(3-methyloxetan-3-yl)ethyl)-5H-spiro[oxazole-4,9′-xanthen]-2-amine], the IC50 in test [1] stood at 0.5 nM; in test [2] (setting [3]) it was 4.5 nM.

Take `NC1=N[C@]2(CO1)c1cc(N3CC[C@@H](F)C3)cc(F)c1Oc1ccc(-c3cccnc3F)c(F)c12` [Example 1053, (4R)-1′,5′-difluoro-2′-(2-fluoro-3-pyridinyl)-7′-((3R)-3-fluoro-1-pyrrolidinyl)spiro[1,3-oxazole-4,9′-xanthen]-2-amine]: the IC50 in test [1] turned out to be 10.3 nM; in test [2] (HEK293, average IC50), 79 nM.

Consider `Cc1ccc(-c2cc(F)c3c(c2)[C@]2(CSC(N)=N2)c2cc(-c4cccnc4F)ccc2O3)cn1` [Example 1086, (4S)-4′-fluoro-7′-(2-fluoro-3-pyridinyl)-2′-(6-methyl-3-pyridinyl)spiro[1,3-thiazole-4,9′-xanthen]-2-amine], for which the IC50 in test [1] is 67 nM; in test [2] (HEK293, average IC50) it was 1370 nM.

With `NC1=N[C@@]2(CO1)c1cc(-c3cncnc3)c(F)cc1Oc1c(F)cc(C3CCOCC3)cc12` [Example 1040, (4S)-3′,5′-difluoro-2′-(5-pyrimidinyl)-7′-(tetrahydro-2H-pyran-4-yl)spiro[1,3-oxazole-4,9′-xanthen]-2-amine], the IC50 in test [1] amounted to 1.5 nM; in test [2] (HEK293, average IC50), 30 nM.

Regarding `NC1=N[C@@]2(CS1)c1cc(-c3cccnc3F)ccc1Oc1ncc(-c3ncccn3)cc12` [Example 728, (5S)-7-(2-fluoro-3-pyridinyl)-3-(2-pyrimidinyl)spiro[chromeno[2,3-b]pyridine-5,4′-[1,3]thiazol]-2′-amine], the IC50 was determined as 3.5 nM in test [1] and 80 nM in test [2] (HEK293, average IC50).

Regarding `CC(C)(C)OCc1cnc2c(c1)[C@]1(COC(N)=N1)c1cc(-c3cccnc3F)c(F)cc1O2` [Example 716, (S)-3-(tert-butoxymethyl)-8-fluoro-7-(2-fluoropyridin-3-yl)-5′H-spiro[chromeno[2,3-b]pyridine-5,4′-oxazol]-2′-amine], the figures for the IC50 in test [1] and in test [2] (setting [3]) were 6.5 nM and 132 nM, respectively.

In the case of `COc1cc(F)c2c(c1)[C@]1(COC(N)=N1)c1cc(-c3cncnc3)c(F)cc1O2` [Example 556, (4S)-3′,5′-difluoro-7′-methoxy-2′-(5-pyrimidinyl)spiro[1,3-oxazole-4,9′-xanthen]-2-amine], the IC50 in test [1] was 8.9 nM; in test [2] (setting [3]) it was 146 nM.

For the compound `COCC1SC(N)=N[C@@]12c1cc(-c3cccnc3F)ccc1Oc1c(F)cc(OC)cc12` (stereo partly drawn) [Example 1090, (4R)-4′-fluoro-7′-(2-fluoro-3-pyridinyl)-2′-methoxy-5-(methoxymethyl)spiro[1,3-thiazole-4,9′-xanthen]-2-amine], the IC50 was 2400 nM in test [1] and more than 10000 nM in test [2] (HEK293, average IC50).
